From PubChem BioAssay AID200 (DTP/NCI, 2004)
“And” between values parts separate entries of the source, which are not always exact repeats. Identical values can stand only once. Toxic doses and inconclusive results are not listed. Where a SMILES comes first, the peptide text is derived from it.

Tested on: B6C3F1 mice, B16 melanoma ip, median survival T/C
Experiment: NCI In Vivo Anticancer Drug Screen. Data for tumor model B16 Melanoma (intraperitoneal) in B6C3F1 mice
Settings: endpoint: median survival time, higher = longer survival
In short: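 Mice bearing transplanted tumor were dosed with compound or vehicle, and survival was recorded. Activity is expressed as the treated-group measurement (T) divided by the vehicle control measurement (C).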

[1] = dose: 100.0 mg/kg/injection, schedule: Q01DX009 (ip), vehicle: Klucel (hydroxypropylcellulose) (HPC)
[2] = dose: 200.0 mg/kg/injection, schedule: Q01DX009 (ip), vehicle: Klucel (hydroxypropylcellulose) (HPC)
[3] = dose: 400.0 mg/kg/injection, schedule: Q01DX009 (ip), vehicle: Klucel (hydroxypropylcellulose) (HPC)
[4] = dose: 12.5 mg/kg/injection, schedule: Q01DX009 (ip), vehicle: saline
[5] = dose: 25.0 mg/kg/injection, schedule: Q01DX009 (ip), vehicle: saline
[6] = dose: 50.0 mg/kg/injection, schedule: Q01DX009 (ip), vehicle: saline
[7] = dose: 25.0 mg/kg/injection, schedule: Q01DX009 (ip), vehicle: saline with Tween-80
[8] = dose: 50.0 mg/kg/injection, schedule: Q01DX009 (ip), vehicle: saline with Tween-80
[9] = dose: 100.0 mg/kg/injection, schedule: Q01DX009 (ip), vehicle: saline with Tween-80
[10] = dose: 200.0 mg/kg/injection, schedule: Q01DX009 (ip), vehicle: saline with Tween-80
[11] = dose: 25.0 mg/kg/injection, schedule: Q01DX009 (ip), vehicle: water
[12] = dose: 50.0 mg/kg/injection, schedule: Q01DX009 (ip), vehicle: water
[13] = dose: 100.0 mg/kg/injection, schedule: Q01DX009 (ip), vehicle: saline
[14] = dose: 100.0 mg/kg/injection, schedule: Q01DX009 (ip), vehicle: water
[15] = dose: 200.0 mg/kg/injection, schedule: Q01DX009 (ip), vehicle: saline
[16] = dose: 200.0 mg/kg/injection, schedule: Q01DX009 (ip), vehicle: water
[17] = dose: 12.5 mg/kg/injection, schedule: Q01DX009 (ip), vehicle: water

COc1ccc2c(c1)CCn1c(C)c(COC(=O)NC(C)C)c(COC(=O)NC(C)C)c1-2
T/C (dose: 1.5 mg/kg/injection, schedule: Q01DX009 (ip), vehicle: distilled water + Tween-80): 114 % of control
T/C (dose: 3.0 mg/kg/injection, schedule: Q01DX009 (ip), vehicle: distilled water + Tween-80): 154 % of control
T/C (dose: 3.12 mg/kg/injection, schedule: Q01DX009 (ip), vehicle: distilled water + Tween-80): 150 % of control
T/C (dose: 12.0 mg/kg/injection, schedule: Q01DX009 (ip), vehicle: distilled water + Tween-80): 163 % of control
T/C (dose: 12.5 mg/kg/injection, schedule: Q01DX009 (ip), vehicle: distilled water + Tween-80): 180 % of control

COc1ccc2c(NCCCCCCNc3c4ccccc4nc4cc(OC)ccc34)c3ccccc3nc2c1
T/C (dose: 39.0 micrograms/kg/injection, schedule: Q01DX009 (ip), vehicle: lactic acid): 108 % of control
T/C (dose: 78.0 micrograms/kg/injection, schedule: Q01DX009 (ip), vehicle: lactic acid): 90 % of control

CCCC(NC(=O)CNC(=O)CNC(=O)OCc1ccccc1)C(=O)O (stereo not drawn) (HELM PEPTIDE1{[O=C(OCc1ccccc1)[*:2]].G.G.[CCCC(N[*:1])C(=O)O]}$$$$V2.0)
T/C [1]: 105 % of control
T/C [2]: 103 % of control
T/C [3]: 112 % of control

C=C(C)C(=O)OCC12CCC(C)=CC1OC1C(O)C(OC(=O)CCl)C2(C)C12CO2 (stereo not drawn)
T/C (dose: 0.5 mg/kg/injection, schedule: Q01DX009 (ip), vehicle: water): 163 % of control
T/C (dose: 1.0 mg/kg/injection, schedule: Q01DX009 (ip), vehicle: water): 163 % of control
T/C (dose: 2.0 mg/kg/injection, schedule: Q01DX009 (ip), vehicle: water): 159 % of control

C=C(c1ccc(OC)c(OC)c1)c1nccc2cc(OC)c(OC)cc12
T/C (dose: 50.0 mg/kg/injection, schedule: Q01DX009 (ip), vehicle: Klucel (hydroxypropylcellulose) (HPC)): 103 % of control
T/C [1]: 98 % of control
T/C [2]: 87 % of control
T/C [3]: 97 % of control
T/C (dose: 800.0 mg/kg/injection, schedule: Q01DX009 (ip), vehicle: Klucel (hydroxypropylcellulose) (HPC)): 90 % of control

CC(=O)/C(=C\c1ccc(Cl)c(Cl)c1)C(=O)CCN(C)C
T/C [4]: 94 % of control
T/C [5]: 93 % of control
T/C [6]: 89 % of control

O=C(Nc1ccccc1CCl)Nc1ccccc1CCl
T/C [7]: 111 % of control
T/C [8]: 115 % of control
T/C [9]: 115 % of control
T/C [10]: 118 % of control

COC1=Nc2ccccc2N2CCN=C12
T/C (dose: 6.25 mg/kg/injection, schedule: Q04DX003 (ip), vehicle: saline with Tween-80): 103 % of control
T/C (dose: 12.5 mg/kg/injection, schedule: Q04DX003 (ip), vehicle: saline with Tween-80): 106 % of control
T/C (dose: 25.0 mg/kg/injection, schedule: Q04DX003 (ip), vehicle: saline with Tween-80): 96 % of control
T/C (dose: 50.0 mg/kg/injection, schedule: Q04DX003 (ip), vehicle: saline with Tween-80): 96 % of control

CC[C@@]1(O)C(=O)OCc2c1cc1n(c2=O)Cc2cc3ccccc3nc2-1
T/C (dose: 0.1 mg/kg/injection, schedule: Q01DX009 (ip), vehicle: other): 108 % of control
T/C (dose: 1.5 mg/kg/injection, schedule: Q01DX009 (ip), vehicle: saline with Tween-80): 174 % of control
T/C (dose: 3.0 mg/kg/injection, schedule: Q01DX009 (ip), vehicle: saline with Tween-80): 189 % of control

COc1c(CNC(=O)CCl)cc2[nH]c(C)cc2c1CNC(=O)CCl
T/C (dose: 12.5 mg/kg/injection, schedule: Q01DX009 (ip), vehicle: Klucel (hydroxypropylcellulose) (HPC)): 104 % of control
T/C (dose: 25.0 mg/kg/injection, schedule: Q01DX009 (ip), vehicle: Klucel (hydroxypropylcellulose) (HPC)): 105 % of control
T/C [1]: 116 % of control

CN(C)CCCN1c2ccccc2Sc2ccc(Cl)cc21
T/C (dose: 4.68 mg/kg/injection, schedule: Q01DX009 (ip), vehicle: saline): 92 % of control
T/C (dose: 9.37 mg/kg/injection, schedule: Q01DX009 (ip), vehicle: saline): 104 % of control
T/C (dose: 18.75 mg/kg/injection, schedule: Q01DX009 (ip), vehicle: saline): 105 % of control

O=C1C=C[C@H](O)[C@@]2(CO)O[C@@H]12
T/C (dose: 0.31 mg/kg/injection, schedule: Q01DX009 (ip), vehicle: saline with Tween-80): 98 % of control
T/C (dose: 0.62 mg/kg/injection, schedule: Q01DX009 (ip), vehicle: saline with Tween-80): 100 % of control
T/C (dose: 1.25 mg/kg/injection, schedule: Q01DX009 (ip), vehicle: saline with Tween-80): 102 % of control
T/C (dose: 2.5 mg/kg/injection, schedule: Q01DX009 (ip), vehicle: saline with Tween-80): 109 % of control
T/C (dose: 5.0 mg/kg/injection, schedule: Q01DX009 (ip), vehicle: saline with Tween-80): 115 % of control and 93 % of control
T/C (dose: 10.0 mg/kg/injection, schedule: Q01DX009 (ip), vehicle: saline with Tween-80): 121 % of control

N#CC(OC1OC(COC2OC(CO)C(O)C(O)C2O)C(O)C(O)C1O)c1ccccc1 (stereo not drawn)
T/C [5]: 101 % of control
T/C [11]: 100 % of control
T/C [6]: 104 % of control
T/C [12]: 102 % of control
T/C [13]: 105 % of control
T/C [14]: 102 % of control
T/C [15]: 106 % of control
T/C [16]: 117 % of control
T/C (dose: 400.0 mg/kg/injection, schedule: Q01DX009 (ip), vehicle: saline): 101 % of control
T/C (dose: 400.0 mg/kg/injection, schedule: Q01DX009 (ip), vehicle: water): 106 % of control
T/C (dose: 800.0 mg/kg/injection, schedule: Q01DX009 (ip), vehicle: saline): 100 % of control
T/C (dose: 800.0 mg/kg/injection, schedule: Q01DX009 (ip), vehicle: water): 106 % of control

CN(C)CSCN(C)C
T/C (dose: 1.56 mg/kg/injection, schedule: Q01DX009 (ip), vehicle: saline with Tween-80): 97 % of control
T/C (dose: 3.13 mg/kg/injection, schedule: Q01DX009 (ip), vehicle: saline with Tween-80): 89 % of control
T/C (dose: 6.25 mg/kg/injection, schedule: Q01DX009 (ip), vehicle: saline with Tween-80): 101 % of control

CCC1=C(C)c2cc3[n-]c(cc4nc(cc5[n-]c(cc1n2)c(C)c5CCC(=O)OC)C(CCC(=O)OC)=C4C)c(C)c3CC.[Ni+2]
T/C (dose: 2.4 mg/kg/injection, schedule: Q01DX009 (ip), vehicle: saline with Tween-80): 88 % of control
T/C (dose: 4.7 mg/kg/injection, schedule: Q01DX009 (ip), vehicle: saline with Tween-80): 88 % of control
T/C (dose: 9.4 mg/kg/injection, schedule: Q01DX009 (ip), vehicle: saline with Tween-80): 92 % of control

Cc1ccccc1N(CC1CO1)CC1CO1 (stereo not drawn)
T/C [4]: 113 % of control
T/C [5]: 105 % of control
T/C [6]: 100 % of control
T/C [13]: 116 % of control
T/C [15]: 124 % of control

Nc1ncnc2c1ncn2C1OC(CO)CC1O (stereo not drawn)
T/C (dose: 37.5 mg/kg/injection, schedule: Q01DX009 (ip), vehicle: Klucel (hydroxypropylcellulose) (HPC)): 121 % of control
T/C (dose: 75.0 mg/kg/injection, schedule: Q01DX009 (ip), vehicle: Klucel (hydroxypropylcellulose) (HPC)): 123 % of control

CN(C)[C@@H]1C(=O)C(C(N)=O)=C(O)[C@@]2(O)C(=O)C3=C(O)c4c(O)ccc(Cl)c4[C@@](C)(O)[C@H]3C[C@@H]12
T/C [4]: 97 % of control
T/C [17]: 109 % of control
T/C [5]: 97 % of control
T/C [11]: 105 % of control
T/C [6]: 101 % of control
T/C [12]: 104 % of control
T/C [13]: 94 % of control
T/C [14]: 100 % of control
T/C [15]: 98 % of control
T/C [16]: 106 % of control

Nc1ccc2ccc(N)cc2c1
T/C [7]: 109 % of control
T/C [8]: 109 % of control
T/C [9]: 116 % of control
T/C [10]: 105 % of control

Nc1n[n+](-c2ccc(Cl)cc2)no1
T/C (dose: 3.12 mg/kg/injection, schedule: Q01DX009 (ip), vehicle: water): 109 % of control
T/C (dose: 6.25 mg/kg/injection, schedule: Q01DX009 (ip), vehicle: water): 102 % of control and 107 % of control
T/C [17]: 103 % of control
T/C [11]: 111 % of control and 123 % of control
T/C [12]: 116 % of control
